Reference: patent US9693997B2, “Antiviral compounds” (priority 2013, dated 2017)
Structures can show the parent of a compound that is named as a salt. Where two headings read alike, the source gives them in different places.

Tests used:
Assay in all cases: microbe, parasite or virus in culture
[1] = test system: Pseudotyped HCV GT1b particles (HCVpp), entry into Huh7-high CD81 cells; format: cell-based, HCV GT1b Con1 strain
[2] = test system: pseudotyped VSV G particles (VSVpp) in Huh7-high CD81 cells; format: cell-based, vesicular stomatitis virus
[3] = test system: Pseudotyped HCV GT1a particles (HCVpp), entry into Huh7-high CD81 cells; format: cell-based, HCV GT1a H77 strain; conditions: Hepatitis C virus, 72 h, read-out: HCVpp GT-1a (EC50, μM)
[4] = Hepatitis C virus, GT1B, 72 h, read-out: HCVpp GT-1b (EC50, μM)
[5] = Vesicular stomatitis virus, 72 h, read-out: VSVpp (EC50, μM)

| Compound | EC50 [1, 4] | EC50 [2, 5] | EC50 [3] | EC50 ([1]; read-out: HCVpp GT-1b (EC50)) | EC50 ([2]; read-out: VSVpp (EC50)) |
| --- | --- | --- | --- | --- | --- |
| Nc1nc(Nc2ccc(-c3ccc(NC(=O)CCCC[C@@H]4SC[C@@H]5NC(=O)N[C@@H]54)cc3)cc2)n[nH]1 (stereo in doubt) [Compound 54, 5-((3aS,4S,6aR)-2-Oxo-hexaneahydro-thieno[3,4-d]imidazol-4-yl)-pentanoic acid [4′-(5-amino-1H-[1,2,4]triazol-3-ylamino)-biphenyl-4-yl]-amide] | 10 µM | > 10 µM | 5.73 µM |  |  |
| CC(C)(C)OC(=O)N1CCC(S(=O)(=O)c2ccc(-c3c(Cl)cc(Nc4n[nH]c(N)n4)cc3C(F)(F)F)cc2)CC1 [Compound 1, 4-[4′-(5-Amino-1H-[1,2,4]triazol-3-ylamino)-2′-chloro-6′-trifluoromethyl-biphenyl-4-sulfonyl]-piperidine-1-carboxylic acid tert-butyl ester] | 0.001 µM | > 10 µM | 0.014 µM |  |  |
| CS(=O)(=O)NCc1ccc(-c2c(Cl)cc(Nc3n[nH]c(N)n3)cc2Cl)cc1 [Compound 12, N-[4′-(5-Amino-1H-[1,2,4]triazol-3-ylamino)-2′,6′-dichloro-biphenyl-4-ylmethyl]-methanesulfonamide] | 0.035 µM | 18.3 µM | 0.003 µM |  |  |
| CC(C)S(=O)(=O)c1ccc(-c2c(F)cc(Nc3n[nH]c(N)n3)cc2Cl)cc1 [Compound 23, N*3*-[2-Chloro-6-fluoro-4′-(propane-2-sulfonyl)-biphenyl-4-yl]-1H-[1,2,4]triazole-3,5-diamine] | 0.092 µM | > 10 µM | 0.023 µM |  |  |
| N#CCCCOc1ccc(-c2c(Cl)cc(Nc3n[nH]c(N)n3)cc2Cl)cc1 [Compound 26, 4-[4′-(5-Amino-1H-[1,2,4]triazol-3-ylamino)-2′,6′-dichloro-biphenyl-4-yloxy]-butyronitrile] | 0.116 µM | 3.79 µM | 0.008 µM |  |  |
| CS(=O)(=O)Cc1ccc(-c2c(Cl)cc(Nc3n[nH]c(N)n3)cc2Cl)cc1 [Compound 31, N*3*-(2,6-Dichloro-4′-methanesulfonylmethyl-biphenyl-4-yl)-1H-[1,2,4]triazole-3,5-diamine] | 0.086 µM | 3.23 µM | 0.004 µM |  |  |
| Nc1nc(Nc2cc(Cl)c(-c3ccc(OCC4CNC4)cc3)c(Cl)c2)n[nH]1 [Compound 32, N*3*-[4′-(Azetidin-3-ylmethoxy)-2,6-dichloro-biphenyl-4-yl]-1H-[1,2,4]triazole-3,5-diamine; hydrochloride] | 0.116 µM | 6.1 µM | 0.006 µM |  |  |
| Nc1nc(Nc2cc(Cl)c(-c3ccc(S(=O)(=O)N4CCNCC4)cc3)c(C(F)(F)F)c2)n[nH]1 [Compound 33, N*3*-[2-Chloro-4′-(piperazine-1-sulfonyl)-6-trifluoromethyl-biphenyl-4-yl]-1H-[1,2,4]triazole-3,5-diamine] | 0.099 µM | 34.3 µM | 0.019 µM |  |  |
| CN(C)S(=O)(=O)c1ccc(-c2c(F)cc(Nc3n[nH]c(N)n3)cc2Cl)cc1 [Compound 34, 4′-(5-Amino-1H-[1,2,4]triazol-3-ylamino)-2′-chloro-6′-fluoro-biphenyl-4-sulfonic acid dimethylamide] | 0.122 µM | > 10 µM | 0.028 µM |  |  |
| Nc1nc(Nc2cc(Cl)c(-c3ccc(NC(=O)CCCC[C@@H]4SC[C@@H]5NC(=O)N[C@@H]54)cc3)c(Cl)c2)n[nH]1 [Compound 39, 5-((3aS,4S,6aR)-2-Oxo-hexaneahydro-thieno[3,4-d]imidazol-4-yl)-pentanoic acid [4′-(5-amino-1H-[1,2,4]triazol-3-ylamino)-2′,6′-dichloro-biphenyl-4-yl]-amide] | 0.09 µM | > 10 µM | 0.002 µM |  |  |
| Nc1nc(Nc2cc(Cl)c(-c3ccccc3)c(Cl)c2)n[nH]1 [Compound 48, N*3*-(2,6-Dichloro-biphenyl-4-yl)-1H-[1,2,4]triazole-3,5-diamine] | 0.533 µM | 30.5 µM | 0.01 µM |  |  |
| Nc1nc(Nc2ccc(-c3ccccc3)cc2)n[nH]1 [Compound 55, N*3*-Biphenyl-4-yl-1H-[1,2,4]triazole-3,5-diamine] | 100 µM | 100 µM | 25.1 µM |  |  |
| CS(=O)(=O)c1cccc(-c2c(F)cc(Nc3nc(N)n[nH]3)cc2C(F)(F)F)c1 [Compound 74, N^5-(2-Fluoro-3′-(methylsulfonyl)-6-trifluoromethylbiphenyl-4-yl)-1H-[1,2,4]-triazole-3,5-diamine] | 0.169 µM | 16.9 µM | 0.055 µM |  |  |
| Nc1nc(Nc2cc(Cl)c(-c3ccc(OC(F)(F)F)cc3)c(Cl)c2)n[nH]1 [Compound 91, N-3-(2,6-Dichloro-4′-trifluoromethyoxy-biphenyl-4-yl)-1H[1,2,4]triazole-3,5-diamine] | 1.13 µM | 23.3 µM | 0.065 µM |  |  |
| Nc1nc(Nc2cc(Cl)c(-c3cccc(Cl)c3)c(Cl)c2)n[nH]1 [Compound 92, N3-(2,3′,6-Trichlorobiphenyl-4-yl)-1H-1,2,4-triazole-3,5-diamine] | 0.57 µM | 35.5 µM | 0.034 µM |  |  |
| N#Cc1ccc(-c2c(Cl)cc(Nc3n[nH]c(N)n3)cc2Cl)cc1 [Compound 93, 4′-(5-Amino-1H-1,2,4-triazol-3-ylamino)-2′,6′-dichlorobiphenyl-4-carbonitrile] | 0.364 µM | 14.8 µM | 0.015 µM |  |  |
| CS(=O)(=O)c1ccc(-c2c(Cl)cc(Nc3n[nH]c(N)n3)cc2Cl)cc1 [Compound 94, N3-(2,6-Dichloro-4′-(methylsulfonyl)biphenyl-4-yl)-1H-1,2,4-triazole-3,5-diamine] | 0.174 µM | 2 µM | 0.007 µM |  |  |
| Nc1nc(Nc2cc(Cl)c(-c3cccc4ccccc34)c(Cl)c2)n[nH]1 [Compound 95, N-3-(3,5-Dichloro-4-naphthalen-1-yl-phenyl)-1H-[1,2,4]triazole-3,5-diamine] | 0.229 µM | 24.1 µM | 0.028 µM |  |  |
| Nc1nc(Nc2cc(Cl)c(-c3ccc(Cl)cc3)c(Cl)c2)n[nH]1 [Compound 96, N-3-(2,6,4′-Trichloro-biphenyl-4-yl)-1H-[1,2,4]triazole-3,5-diamine] | 0.927 µM | 4.27 µM | 0.009 µM |  |  |
| CC(C)S(=O)(=O)c1ccc(-c2c(Cl)cc(Nc3n[nH]c(N)n3)cc2C(F)(F)F)cc1 [Compound 181, N3-(2-chloro-4′-(isopropylsulfonyl)-6-(trifluoromethyl)biphenyl-4-yl)-1H-1,2,4-triazole-3,5-diamine] | 0.059 µM |  | 0.021 µM |  |  |
| CC(C)(C)NS(=O)(=O)c1ccc(-c2c(Cl)cc(Nc3n[nH]c(N)n3)cc2C(F)(F)F)cc1OC(F)(F)F [Compound 217, 4′-(5-Amino-1H-[1,2,4]triazol-3-ylamino)-6′-chloro-3-trifluoromethoxy-2′-trifluoromethylbiphenyl-4-sulfonic acid tert-butylamide] |  | 7.5 µM | 0.003 µM |  |  |
| CC(C)(C)NS(=O)(=O)c1ccc(-c2c(Cl)cc(Nc3n[nH]c(N)n3)cc2C(F)(F)F)cc1 [Compound 219, 4′-(5-Amino-1H-[1,2,4]triazol-3-ylamino)-6′-chloro-2′-trifluoromethyl-biphenyl-4-sulfonic acid tert-butylamide] |  | 16.2 µM | 0.011 µM |  |  |
| [4′-(5-amino-1H-[1,2,4]triazol-3-ylamino)-2′-chloro-6′-trifluoromethyl-biphenyl-4-yl]-carbamic acid propyl ester [Compound 238] |  |  |  | 0.078 µM | 24.9 µM |
